How the values were obtained:
Type in all cases: cell-based
PC-3 cells = assay: Primary 3D screen in Matrigel ECM, morphometric image analysis (AMIDA) of invasion, growth and cell death; conditions: for anti-invasive effects in 3D culture (in words): 0.03-1 μM; for concentration suppressing the invasive transformation (roundness %): PC-3 spheroids, over 6 days
Method: Three standard of care compounds widely used against PrCa were added as controls; namely, the androgen receptor antagonist enzalutamide (MDV3100), the C17α-hydroxylase/C17,20-lyase inhibitor abiraterone (Zytiga), and the classic mitotic inhibitor paclitaxel. Treatments started at day 4, when well-differentiated round acini were established.
The live 3D cell cultures were then stained with reactive dyes Calcein AM to detect living, and ethidium homodimer to detect dead cells. Images (Fig 4A) were acquired with confocal microscope and image data were analyzed with the AMIDA software. The principles of morphometric image analysis are briefly outlined in S2 Fig.
Fig 4 Primary 3D screen. PC-3 cells were cultured in 3D Matrigel ECM for 4 days and treated for 6 days with 25 betulin derivatives (from 2D high throughput screens), DMSO/vehicle control, and three reference compounds. A) Representative maximum intensity projections of confocal microscope stack images for selected compound treatments at 300 nM concentration (5× objective, scale 100 μm). B) Three graphs showing the relative impact on three morphometric parameters for 7 betulin derivatives, DMSO control, and one control compound (paclitaxel). […] C) Hierarchical clustering was done using three morphological parameters derived from PC3 organoids: spheroid size (area), complexity and the number of dead cells. D) Wound healing curves of the two betulin derivatives 4 and 20, highlighting the 50% cut-off level (orange dashed line).
Next, statistical analyses were performed to interpret the complex image data (Fig 4B and 4C). For simplicity, we focused on only three, basic morphologic parameters from the multiparametric AMIDA readout (Fig 4B): 1) Area (indicating growth of organoids), 2) structural Complexity (as a measure of the intensity of invasion), and 3) Relative Area of dead cells within organoids (red signal as a measure of cytoxicity or apoptosis). Area (Size of organoids; Fig 4B, upper panel) was measured as the number of pixels within a segmented structure. […] Shape Complexity (Fig 4B, middle panel) was obtained using the structure size (area) and perimeter (number of border pixels). The more regular the shape of an organoid, the closer it is to a perfect circle, thus minimizing the perimeter relative to object size. […] Deviations from this average (residuals) were interpreted as a measure for the shape complexity of organoids. As a logical lower limit for this measure (represented by a perfect circle), we adjusted the intercept (height level) of the regression line to render all returned residuals as positive numbers.
All 3D cultures were done in growth factor-free Matrigel Basement-membrane Matrix (Corning Inc., New York, NY, USA) using 96-well Angiogenesis μ-plates (ibidi GmbH, Munich, Germany) as described before.[38] “Sandwich” assays in short: bottom wells of cooled Angiogenesis plates were filled with 10 μL 4 mg/mL Matrigel, centrifuged for 20 min 200 g and incubated at 37°C temperature for approximately 30–60 min or until the ECM had polymerized. 1,000–1,500 cells were mixed in 2 mg/mL ECM-medium, and 20 μL of cell suspension was added in each well. The plates were centrifuged for 10 min at 100 g, or until the cells had settled on top of the lower ECM. Finally, the outer wells and side reservoirs were filled with water for humidification, and the culture plates placed into the incubator for 3–4 h or overnight. The following day, 60 μL of cell culture medium were added; refreshed every third day by carefully aspirating the medium.

LAPC-4 = assay: Secondary 3D screen (spheroid size, complexity, cell death); conditions: yellow and red clusters
Description: Next, the 25 selected betulin derivatives depicted in Figs 1–3 including control compounds were again thoroughly tested across the same panel of prostate-derived cell lines already used in the preliminary, 2D high-throughput screen. The resulting dendrograms were either generated separately for each cell line (S4 Fig), combined into a single dendrogram (Fig 5A), or shown as reduced organoid sizes (area; Fig 5B).
Fig 5 Secondary 3D screens. Experimental betulin derivatives and control compounds were tested across a panel of prostate cancer lines (LNCaP, LAPC-4) and non-transformed, prostate epithelial cells (EP156T) in 3D culture. A) The dendrogram is based on three main morphological parameters and combines all data from primary and secondary 3D screens. […] B) Boxplots showing the impact of selected compounds on spheroid size (Area). Data scaling: as described in Fig 4 C) Effects of all betulin derivatives and control compounds on cell death (number of dead cells).
All 3D cultures were done in growth factor-free Matrigel Basement-membrane Matrix (Corning Inc., New York, NY, USA) using 96-well Angiogenesis μ-plates (ibidi GmbH, Munich, Germany) as described before.[38] “Sandwich” assays in short: bottom wells of cooled Angiogenesis plates were filled with 10 μL 4 mg/mL Matrigel, centrifuged for 20 min 200 g and incubated at 37°C temperature for approximately 30–60 min or until the ECM had polymerized. 1,000–1,500 cells were mixed in 2 mg/mL ECM-medium, and 20 μL of cell suspension was added in each well. The plates were centrifuged for 10 min at 100 g, or until the cells had settled on top of the lower ECM. Finally, the outer wells and side reservoirs were filled with water for humidification, and the culture plates placed into the incubator for 3–4 h or overnight. The following day, 60 μL of cell culture medium were added; refreshed every third day by carefully aspirating the medium. This “sandwich” setting allows almost unifocal alignment of cells and 3D structures in a single optical plane, thus reducing the time required for confocal stack imaging.
All control compounds were purchased from Selleck (Munich, Germany), except for staurosporine (Sigma-Aldrich, St. Louis, MO, USA) and Y-27632 (Tocris, Bristol, UK) and dissolved in dimethyl sulfoxide (DMSO) as a vehicle at 10 mM. In the primary and secondary 3D screens, experimental and control compound exposures were performed in triplicates. Four concentrations for each compound were applied (0.03, 0.1, 0.3 and 1 μM). Compound treatments were initiated four days after cell embedding, and continued for six days after which spheroids were stained and imaged.
Supplementary file pone.0126111.s004.eps: S4 Fig Secondary screens. Dendrograms for A) LNCaP, B) LAPC-4, and C) Ep156T betulin screens in 3D culture have been constructed using three main read-outs: spheroid size, spheroid complexity, and cell death. […] (EPS) Click here for additional data file.

[1] = test system: actin cytoskeleton of PC-3, LNCaP and Ep156T spheroids; assay: F-actin cytoskeleton (phalloidin staining) in 3D spheroids; conditions: after 48 hours of exposure; seen in Ep156T acini and PC-3 spheroids, not LNCaP
Description: […] […] For phenotypic comparisons, we tested a panel of reference compounds targeting Akt, Rac, ROCK, Src, and other pathways, broadly linked to the actin cytoskeleton.
Fig 8 3D morphologies of prostate spheroids, exposed to selected betulin derivatives and captured with a confocal microscope. Actin cytoskeleton (filamentous or F-actin) is stained green (phalloidin), nuclei with a red dye (confocal microscope images, 40× objective, scale bar shown for each panel on the right lower corner).

[2] = PC-3 in 3D Matrigel, 6 days treatment

Row | Structure (SMILES) | effect on morphometric measures (area, complexity, dead cells) (PC-3 cells; PC-3 in 3D Matrigel, paclitaxel at 30 and 100 nM) | efficacy in 3D LAPC-4 culture (dendrogram clusters) (LAPC-4) | anti-invasive effects in 3D culture (in words) (PC-3 cells; [2]) | concentration suppressing the invasive transformation (roundness %) (PC-3 cells) | organization of actin cytoskeleton in 3D spheroids [1] | concentration at which anti-invasive effects are seen in 3D (PC-3 cells; [2]) [nM]
1 | CC(=O)O[C@H]1C(=O)[C@@]2(C)[C@H]([C@H](OC(=O)c3ccccc3)[C@]3(O)C[C@H](OC(=O)[C@H](O)[C@@H](NC(=O)c4ccccc4)c4ccccc4)C(C)=C1C3(C)C)[C@]1(OC(C)=O)CO[C@@H]1C[C@@H]2O [Paclitaxel, paclitaxel, reference compound] | strong effect on all morphometric measures | efficacy of all positive controls |  |  |  | 
2 | C=C(C)[C@@H]1CC[C@]2(C(=O)O)CC[C@]3(C)C(CCC4[C@@]5(C)Cc6cccnc6C(C)(C)C5CC[C@]43C)C12 (stereo partly drawn) [Compound 19] |  | most active | potently anti-invasive at significantly lower concentrations |  |  | 
3 | C=C(C)[C@@H]1CC[C@]2(C(=O)O)CC[C@]3(C)C(CCC4[C@@]5(C)Cc6ncccc6C(C)(C)C5CC[C@]43C)C12 (stereo partly drawn) [Compound 20] |  | most active | potently anti-invasive at significantly lower concentrations | over 300 nM | effectively disrupted the organization of actin cytoskeleton | 
4 | CC(C)[C@@H]1CC[C@]2(C(=O)O)CC[C@]3(C)C(CCC4[C@@]5(C)Cc6cnoc6C(C)(C)C5CC[C@]43C)C12 (stereo partly drawn) [Compound 4] |  | most active |  |  |  | 
5 | C=C(C)[C@@H]1CC[C@]2(C(=O)O)CC[C@]3(C)C(CCC4[C@@]5(C)Cc6cnoc6C(C)(C)C5CC[C@]43C)C12 (stereo partly drawn) [Compound 5] |  |  |  | over 300 nM | effectively disrupted the organization of actin cytoskeleton | 300
6 | C=C(C)[C@@H]1CC[C@]2(C(=O)O)CC[C@]3(C)C(CCC4[C@@]5(C)Cc6c[nH]nc6C(C)(C)C5CC[C@]43C)C12 (stereo partly drawn) [Compound 6] |  | most active | even more potent and proved to be specifically anti-invasive |  | effectively disrupted the organization of actin cytoskeleton | 
